# Tested on: total serum bilirubin (TSB)
# Assay: Phase 2b trial: total serum bilirubin (TSB), adjusted and unadjusted, change from baseline
# Assay type: in vivo, human
# Set-up: total serum bilirubin / total serum bilirubin, Delta (change from baseline) / Change from baseline of total serum bilirubin: unit not given here
# Details: for change from baseline in unadjusted TSB, Mean (SD) / change from baseline in unadjusted TSB, Median / unadjusted TSB, Mean (SD) / unadjusted TSB, Median / change from baseline in adjusted TSB, LS mean (SEM) / change from baseline in adjusted TSB, LS mean difference versus placebo / change from baseline in unadjusted TSB, LS Mean (SEM) / change from baseline in unadjusted TSB, LS Mean Difference versus placebo / adjusted TSB, Mean (SD) / change from baseline in adjusted TSB, Mean (SD) / change from baseline in adjusted TSB, Median / change from baseline in adjusted TSB, LS mean difference versus placebo, MMRM / change from baseline in adjusted TSB, LS means (SEM), MMRM: ITT; for Change from baseline of total serum bilirubin: 4.5 mg/kg (N = 5); for change from baseline in adjusted TSB, LS mean difference versus placebo, MMRM / change from baseline in adjusted TSB, LS means (SEM), MMRM: observed case
# Protocol: Three cohorts of subjects were recruited. This clinical study was designed to evaluate safety and efficacy parameters in each cohort.
# Scheduled assessments (including TSB) occurred before treatment and at 0.75 and 2 hours (or 1.5 and 3 hours, depending on PK blood sampling assignment); 6, 12, 24, 48, and 72 hours; and 14 and 30 (except TSB) days after treatment or early termination.
# The primary efficacy endpoint was the change in adjusted TSB from baseline to 48 hours after treatment. The adjusted TSB was a calculation of the percentage variance of the TSB level from the age specific threshold for PT initiation per the AAP Guidelines, i.e., an indication of the distance below the PT threshold by time.
# The Secondary Efficacy Endpoints were the change from baseline in unadjusted TSB at 48 hours after treatment, change from baseline in adjusted and unadjusted TSB at various other time points after treatment, percent change from baseline in unadjusted TSB, proportion of subjects who require PT/exchange transfusion (ET), time to PT/ET, duration of PT and time to hospital discharge.
# Intent-to-treat population (ITT): Defined as all subjects who were randomly assigned treatment in the clinical study, had received IMP, and had at least 1 post baseline TSB measurement during the first 48 hours after treatment. Subjects were summarized based on randomized treatment.
# Analysis of Efficacy Parameters: The primary efficacy analysis applied the analysis of covariance (ANCOVA) method to determine if there was a significant difference between treatment groups in change in adjusted TSB levels from baseline to 48 hours post baseline after controlling for the effects of gestational age and adjusted baseline TSB levels. If assumptions of ANCOVA appeared to be violated, a Wilcoxon rank-sum test could be performed instead. Time-to-event variables were analyzed using the Kaplan-Meier method, and Kaplan-Meier survival curves were presented.
# [1] = 3.0 mg/kg IM, 72 h, LOCF, ANCOVA
# [2] = 3.0 mg/kg IM, 14 days/early termination, LOCF
# [3] = 3.0 mg/kg IM, 14 days/early termination, LOCF, ANCOVA
# [4] = 3.0 mg/kg versus the placebo group, 48 Hours/Early termination, PP Population, ANCOVA
# [5] = 3.0 mg/kg, 48 Hours/Early termination, PP Population, LOCF
# [6] = 3.0 mg/kg, 6 hrs, unadjusted TSB, ITT Population
# [7] = 3.0 mg/kg, 12 hrs, unadjusted TSB, ITT Population
# [8] = 3.0 mg/kg, 24 hrs, unadjusted TSB, ITT Population
# [9] = 3.0 mg/kg, 48 hrs, unadjusted TSB, ITT Population
# [10] = 3.0 mg/kg, baseline, PP Population
# [11] = 3.0 mg/kg, baseline, unadjusted TSB, ITT Population
# [12] = 4.5 mg/kg IM, 6 h, LOCF, ANCOVA
# [13] = 4.5 mg/kg IM, 12 h, LOCF, ANCOVA
substance,measurement,setting,value
tin IV mesoporphyrin IX dichloride [Stannsoporfin],"change from baseline in unadjusted TSB, Mean (SD)","3.0 mg/kg IM, 72 h, LOCF",1.66 (3.496) mg/dL
same,"change from baseline in unadjusted TSB, Median","3.0 mg/kg IM, 72 h, LOCF",2.45 mg/dL
same,"unadjusted TSB, Mean (SD)","3.0 mg/kg IM, 72 h, LOCF",9.87 (3.681) mg/dL
same,"unadjusted TSB, Median","3.0 mg/kg IM, 72 h, LOCF",10.70 mg/dL
same,"change from baseline in adjusted TSB, LS mean (SEM)",[1],−19.28 (6.633) %
same,"change from baseline in adjusted TSB, LS mean difference versus placebo",[1],−14.53%
same,"change from baseline in unadjusted TSB, LS Mean (SEM)",[1],2.77 (1.133) mg/dL
same,"change from baseline in unadjusted TSB, LS Mean Difference versus placebo",[1],-2.18 mg/dL
same,"change from baseline in unadjusted TSB, Mean (SD)",[2],−2.98 (5.389) mg/dL
same,"change from baseline in unadjusted TSB, Median",[2],-4.80 mg/dL
same,"unadjusted TSB, Mean (SD)",[2],5.23 (5.123) mg/dL
same,"unadjusted TSB, Median",[2],3.40 mg/dL
same,"change from baseline in unadjusted TSB, LS Mean (SEM)",[3],−2.42 (1.324) mg/dL
same,"change from baseline in unadjusted TSB, LS Mean Difference versus placebo",[3],-0.12 mg/dL
same,"48 Hours/Early termination change from baseline in unadjusted TSB, LS mean difference",[4],-1.74 mg/dL
same,"P-value of LS mean difference, change from baseline in unadjusted TSB",[4],0.078
same,"48 Hours/Early termination change from baseline in unadjusted TSB, Max",[5],5.4 mg/dL
same,"48 Hours/Early termination change from baseline in unadjusted TSB, Mean (SD)",[5],2.20 (2.928) mg/dL
same,"48 Hours/Early termination change from baseline in unadjusted TSB, Median",[5],2.87 mg/dL
same,"48 Hours/Early termination change from baseline in unadjusted TSB, Min",[5],-3.4 mg/dL
same,"48 Hours/Early termination unadjusted TSB, Max",[5],13.8 mg/dL
same,"48 Hours/Early termination unadjusted TSB, Mean (SD)",[5],10.53 (2.911) mg/dL
same,"48 Hours/Early termination unadjusted TSB, Median",[5],11.60 mg/dL
same,"48 Hours/Early termination unadjusted TSB, Min",[5],4.2 mg/dL
same,"48 Hours/Early termination change from baseline in unadjusted TSB, LS mean (SEM)","3.0 mg/kg, 48 Hours/Early termination, PP Population, LOCF, ANCOVA",2.20 (0.881) mg/dL
same,"6 hrs Percent Change from Baseline in TSB, Max",[6],59.0%
same,"6 hrs Percent Change from Baseline in TSB, Mean (SD)",[6],19.54 (12.055) %
same,"6 hrs Percent Change from Baseline in TSB, Min",[6],−2.6%
same,"6 hrs TSB, Max",[6],12.3 mg/dL
same,"6 hrs TSB, Mean (SD)",[6],9.74 (1.730) mg/dL
same,"6 hrs TSB, Min",[6],6.8 mg/dL
same,"12 hrs Percent Change from Baseline in TSB, Max",[7],73.8%
same,"12 hrs Percent Change from Baseline in TSB, Mean (SD)",[7],26.17 (15.650) %
same,"12 hrs Percent Change from Baseline in TSB, Min",[7],0.0%
same,"12 hrs TSB, Max",[7],12.2 mg/dL
same,"12 hrs TSB, Mean (SD)",[7],10.26 (1.748) mg/dL
same,"12 hrs TSB, Min",[7],6.9 mg/dL
same,"24 hrs Percent Change from Baseline in TSB, Max",[8],86.9%
same,"24 hrs Percent Change from Baseline in TSB, Mean (SD)",[8],24.84 (23.900) %
same,"24 hrs Percent Change from Baseline in TSB, Median",[8],23.00%
same,"24 hrs Percent Change from Baseline in TSB, Min",[8],−11.8%
same,"24 hrs TSB, Max",[8],11.9 mg/dL
same,"24 hrs TSB, Mean (SD)",[8],10.06 (1.757) mg/dL
same,"24 hrs TSB, Min",[8],6.7 mg/dL
same,"48 hrs Percent Change from Baseline in TSB, Max",[9],88.5%
same,"48 hrs Percent Change from Baseline in TSB, Mean (SD)",[9],31.84 (36.062) %
same,"48 hrs Percent Change from Baseline in TSB, Min",[9],−44.7%
same,"48 hrs TSB, Max",[9],14.1 mg/dL
same,"48 hrs TSB, Mean (SD)",[9],10.68 (2.956) mg/dL
same,"48 hrs TSB, Min",[9],4.2 mg/dL
same,mean TSB levels,"3.0 mg/kg, 14 days after treatment (text, not LOCF table)",5.23 mg/dL
same,"Baseline unadjusted TSB, Max",[10],10.4 mg/dL
same,"Baseline unadjusted TSB, Mean (SD)",[10],8.33 (1.585) mg/dL
same,"Baseline unadjusted TSB, Median",[10],8.90 mg/dL
same,"Baseline unadjusted TSB, Min",[10],6.0 mg/dL
same,"Baseline TSB, Max",[11],10.4 mg/dL
same,"Baseline TSB, Mean (SD)",[11],8.21 (1.577) mg/dL
same,"Baseline TSB, Min",[11],5.5 mg/dL
same,Change from baseline of total serum bilirubin,"6 hours, preliminary data",1.69 ± 0.50
same,Change from baseline of total serum bilirubin,"24 hours, preliminary data",0.93 ± 0.20
same,Change from baseline of total serum bilirubin,"48 hours, preliminary data",0.80 ± 2.79
same,total serum bilirubin,"4.5 mg/kg IM (N = 5), 48 hours, treated per protocol, preliminary data",9.88 ± 2.8
same,"adjusted TSB, Mean (SD)","4.5 mg/kg IM, 6 h, LOCF",−4.49 (11.322) %
same,"change from baseline in adjusted TSB, Mean (SD)","4.5 mg/kg IM, 6 h, LOCF",4.70 (4.583) %
same,"change from baseline in adjusted TSB, Median","4.5 mg/kg IM, 6 h, LOCF",4.10%
same,"change from baseline in unadjusted TSB, Mean (SD)","4.5 mg/kg IM, 6 h, LOCF",1.69 (0.493) mg/dL
same,"change from baseline in unadjusted TSB, Median","4.5 mg/kg IM, 6 h, LOCF",1.61 mg/dL
same,"unadjusted TSB, Mean (SD)","4.5 mg/kg IM, 6 h, LOCF",11.27 (2.074) mg/dL
same,"unadjusted TSB, Median","4.5 mg/kg IM, 6 h, LOCF",11.25 mg/dL
same,"change from baseline in adjusted TSB, LS mean (SEM)",[12],4.03 (2.697) %
same,"change from baseline in adjusted TSB, LS mean difference versus placebo",[12],−0.35%
same,"change from baseline in unadjusted TSB, LS Mean (SEM)",[12],1.62 (0.293) mg/dL
same,"change from baseline in unadjusted TSB, LS Mean Difference versus placebo",[12],0.03 mg/dL
same,"change from baseline in adjusted TSB, LS mean difference versus placebo, MMRM","4.5 mg/kg IM, 6 h",−2.38%
same,"change from baseline in adjusted TSB, LS means (SEM), MMRM","4.5 mg/kg IM, 6 h",2.00 (2.825) %
same,"adjusted TSB, Mean (SD)","4.5 mg/kg IM, 12 h, LOCF",−7.80 (9.906) %
same,"change from baseline in adjusted TSB, Mean (SD)","4.5 mg/kg IM, 12 h, LOCF",1.39 (6.394) %
same,"change from baseline in adjusted TSB, Median","4.5 mg/kg IM, 12 h, LOCF",−0.70%
same,"change from baseline in unadjusted TSB, Mean (SD)","4.5 mg/kg IM, 12 h, LOCF",1.89 (0.421) mg/dL
same,"change from baseline in unadjusted TSB, Median","4.5 mg/kg IM, 12 h, LOCF",1.92 mg/dL
same,"unadjusted TSB, Mean (SD)","4.5 mg/kg IM, 12 h, LOCF",11.48 (1.924) mg/dL
same,"unadjusted TSB, Median","4.5 mg/kg IM, 12 h, LOCF",11.27 mg/dL
same,"change from baseline in adjusted TSB, LS mean (SEM)",[13],2.17 (3.960) %
same,"change from baseline in adjusted TSB, LS mean difference versus placebo",[13],−4.96%
same,"change from baseline in unadjusted TSB, LS Mean (SEM)",[13],1.95 (0.453) mg/dL
same,"change from baseline in unadjusted TSB, LS Mean Difference versus placebo",[13],-0.65 mg/dL
same,"change from baseline in adjusted TSB, LS mean difference versus placebo, MMRM","4.5 mg/kg IM, 12 h",−8.38%
same,"change from baseline in adjusted TSB, LS means (SEM), MMRM","4.5 mg/kg IM, 12 h",−2.41 (3.856) %
same,"adjusted TSB, Mean (SD)","4.5 mg/kg IM, 24 h, LOCF",−24.66 (15.145) %
same,"change from baseline in adjusted TSB, Mean (SD)","4.5 mg/kg IM, 24 h, LOCF",−15.48 (18.694) %

# From patent US20130158362A1 (INFACARE PHARMACEUTICAL CORPORATION, priority 2011, published 2013)
